# System: post-menopausal women
# Test: Weekly severity of moderate to severe VMS, dose-finding study
# Type: in vivo
# From the text: To determine the Minimum Effective Dose (MED), firstly the selection criteria required that patients presented at least 7 moderate to severe VMS/day or at least 50 moderate to severe VMS/week in the week preceding randomization. Secondly, a placebo group was included in a double-blind fashion. Thirdly, the total patient number was such that statistical significance could be obtained between separate arms of the study. Fourthly, the absolute change from baseline in weekly frequency of moderate to severe VMS was taken into account. An analysis of covariance (ANCOVA) was performed based on the untransformed change in weekly frequency of moderate to severe VMS from baseline. Finally, the change in severity from baseline was evaluated. For this, the Severity Scoring System of VMS was documented by the subjects as follows: • a score of Mild (1) for a sensation of heat without sweating; • a score of Moderate (2) for a sensation of heat with sweating/the subject is able to continue activity; and • a score of Severe (3) for a sensation of heat with sweating/which causes cessation of activity.
# In addition, a severity score of zero was attributed to the patients who have experienced a 100% VMS relief during a given week.
# From these score records, the severity at baseline was calculated by taking into account only moderate and severe VMS, such that the total number of moderate VMS during the 7 days of the baseline week was multiplied by 2 and added to the total number of severe VMS during the 7 days of the baseline week multiplied by 3. This total was then divided by the total number of moderate and severe VMS during the baseline week.
# The severity at weeks 4 and 12 was calculated using the following formula for each of these weeks: • the number of mild VMS during 7 days multiplied by 1; • the number of moderate VMS during 7 days multiplied by 2; • the number of severe VMS during 7 days multiplied by 3. and adding the 3 resulting numbers together before dividing this total by the total number of mild, moderate and severe VMS during the 7 days of the week.
# This method was used to generate the data included in Example 1 further below, under section A. b) “VMS Severity”.
# In order to better analyse the data recorded in this study, treatment groups have been compared using an ANCOVA (analysis of covariance) with respect to the change in severity of moderate to severe VMS from baseline to mild, moderate and severe VMS at week 4 and week 12 for each active treatment versus placebo. For women who experienced 100% VMS relief at week 4 and/or week 12, a value of zero was attributed. The ANCOVA model includes treatment (“trt1”) as a fixed effect and baseline (“base”) as a covariate. • b) Covariate significance
smiles,measurement,setting,value
"C[C@]12CC[C@@H]3c4ccc(O)cc4CC[C@H]3[C@@H]1[C@@H](O)[C@@H](O)[C@@H]2O [E4, 1,3,5 (10)-estratrien-3,15alpha,16alpha,17beta-tetrol]",LS adjusted mean change from baseline in weekly severity of moderate to severe VMS,"2.5 mg E4, week 4",−0.3411
same,LS adjusted mean relative change from baseline in weekly severity of moderate to severe VMS,"2.5 mg E4, week 4",−0.1453
same,LS adjusted mean change from baseline in weekly severity of moderate to severe VMS,"2.5 mg E4, week 12",−0.6296
same,LS adjusted mean relative change from baseline in weekly severity of moderate to severe VMS,"2.5 mg E4, week 12",−0.275
same,Mean change from baseline in weekly severity of moderate to severe VMS,"2.5 mg E4 QD per os, week 1",−0.1542
same,"Relative change (% from baseline) in weekly severity of moderate to severe VMS, mean","2.5 mg E4 QD per os, week 1",−7%
same,Mean change from baseline in weekly severity of moderate to severe VMS,"2.5 mg E4 QD per os, week 2",−0.2112
same,"Relative change (% from baseline) in weekly severity of moderate to severe VMS, mean","2.5 mg E4 QD per os, week 2",−9%
same,Mean change from baseline in weekly severity of moderate to severe VMS,"2.5 mg E4 QD per os, week 3",−0.3246
same,"Relative change (% from baseline) in weekly severity of moderate to severe VMS, mean","2.5 mg E4 QD per os, week 3",−14%
same,Mean change from baseline in weekly severity of moderate to severe VMS,"2.5 mg E4 QD per os, week 4",−0.3373
same,"Relative change (% from baseline) in weekly severity of moderate to severe VMS, mean","2.5 mg E4 QD per os, week 4",−15%
same,Mean change from baseline in weekly severity of moderate to severe VMS,"2.5 mg E4 QD per os, week 5",−0.3984
same,"Relative change (% from baseline) in weekly severity of moderate to severe VMS, mean","2.5 mg E4 QD per os, week 5",−17%
same,Mean change from baseline in weekly severity of moderate to severe VMS,"2.5 mg E4 QD per os, week 6",−0.5014
same,"Relative change (% from baseline) in weekly severity of moderate to severe VMS, mean","2.5 mg E4 QD per os, week 6",−22%
same,Mean change from baseline in weekly severity of moderate to severe VMS,"2.5 mg E4 QD per os, week 7",−0.4562
same,"Relative change (% from baseline) in weekly severity of moderate to severe VMS, mean","2.5 mg E4 QD per os, week 7",−20%
same,Mean change from baseline in weekly severity of moderate to severe VMS,"2.5 mg E4 QD per os, week 8",−0.5359
same,"Relative change (% from baseline) in weekly severity of moderate to severe VMS, mean","2.5 mg E4 QD per os, week 8",−24%
same,Mean change from baseline in weekly severity of moderate to severe VMS,"2.5 mg E4 QD per os, week 9",−0.5465
same,"Relative change (% from baseline) in weekly severity of moderate to severe VMS, mean","2.5 mg E4 QD per os, week 9",−24%
same,Mean change from baseline in weekly severity of moderate to severe VMS,"2.5 mg E4 QD per os, week 10",−0.6052
same,"Relative change (% from baseline) in weekly severity of moderate to severe VMS, mean","2.5 mg E4 QD per os, week 10",−26%
same,Mean change from baseline in weekly severity of moderate to severe VMS,"2.5 mg E4 QD per os, week 11",−0.5564
same,"Relative change (% from baseline) in weekly severity of moderate to severe VMS, mean","2.5 mg E4 QD per os, week 11",−25%
same,Mean change from baseline in weekly severity of moderate to severe VMS,"2.5 mg E4 QD per os, week 12",−0.6279
same,"Relative change (% from baseline) in weekly severity of moderate to severe VMS, mean","2.5 mg E4 QD per os, week 12",−28%
same,"Difference with placebo, LS adjusted mean, absolute change in weekly severity of moderate to severe VMS","2.5 mg E4 vs placebo, week 4",−0.01329
same,"Difference with placebo, LS adjusted mean, relative change in weekly severity of moderate to severe VMS","2.5 mg E4 vs placebo, week 4",−0.004358
same,"Difference with placebo, LS adjusted mean, absolute change in weekly severity of moderate to severe VMS","2.5 mg E4 vs placebo, week 12",0.02869
same,"Difference with placebo, LS adjusted mean, relative change in weekly severity of moderate to severe VMS","2.5 mg E4 vs placebo, week 12",0.004705
same,LS adjusted mean change from baseline in weekly severity of moderate to severe VMS,"5 mg E4, week 4",−0.2386
same,LS adjusted mean relative change from baseline in weekly severity of moderate to severe VMS,"5 mg E4, week 4",−0.09556
same,LS adjusted mean change from baseline in weekly severity of moderate to severe VMS,"5 mg E4, week 12",−0.4026
same,LS adjusted mean relative change from baseline in weekly severity of moderate to severe VMS,"5 mg E4, week 12",−0.1649
same,Mean change from baseline in weekly severity of moderate to severe VMS,"5 mg E4 QD per os, week 1",−0.098
same,"Relative change (% from baseline) in weekly severity of moderate to severe VMS, mean","5 mg E4 QD per os, week 1",−4%
same,Mean change from baseline in weekly severity of moderate to severe VMS,"5 mg E4 QD per os, week 2",−0.1199
same,"Relative change (% from baseline) in weekly severity of moderate to severe VMS, mean","5 mg E4 QD per os, week 2",−5%
same,Mean change from baseline in weekly severity of moderate to severe VMS,"5 mg E4 QD per os, week 3",−0.1574
same,"Relative change (% from baseline) in weekly severity of moderate to severe VMS, mean","5 mg E4 QD per os, week 3",−7%
same,Mean change from baseline in weekly severity of moderate to severe VMS,"5 mg E4 QD per os, week 4",−0.2341
same,"Relative change (% from baseline) in weekly severity of moderate to severe VMS, mean","5 mg E4 QD per os, week 4",−10%
same,Mean change from baseline in weekly severity of moderate to severe VMS,"5 mg E4 QD per os, week 5",−0.1683
same,"Relative change (% from baseline) in weekly severity of moderate to severe VMS, mean","5 mg E4 QD per os, week 5",−7%
same,Mean change from baseline in weekly severity of moderate to severe VMS,"5 mg E4 QD per os, week 6",−0.3212
same,"Relative change (% from baseline) in weekly severity of moderate to severe VMS, mean","5 mg E4 QD per os, week 6",−14%
same,Mean change from baseline in weekly severity of moderate to severe VMS,"5 mg E4 QD per os, week 7",−0.2787
same,"Relative change (% from baseline) in weekly severity of moderate to severe VMS, mean","5 mg E4 QD per os, week 7",−12%
same,Mean change from baseline in weekly severity of moderate to severe VMS,"5 mg E4 QD per os, week 8",−0.3239
same,"Relative change (% from baseline) in weekly severity of moderate to severe VMS, mean","5 mg E4 QD per os, week 8",−14%
same,Mean change from baseline in weekly severity of moderate to severe VMS,"5 mg E4 QD per os, week 9",−0.3249
same,"Relative change (% from baseline) in weekly severity of moderate to severe VMS, mean","5 mg E4 QD per os, week 9",−14%
same,Mean change from baseline in weekly severity of moderate to severe VMS,"5 mg E4 QD per os, week 10",−0.3667
same,"Relative change (% from baseline) in weekly severity of moderate to severe VMS, mean","5 mg E4 QD per os, week 10",−15%
same,Mean change from baseline in weekly severity of moderate to severe VMS,"5 mg E4 QD per os, week 11",−0.4161
same,"Relative change (% from baseline) in weekly severity of moderate to severe VMS, mean","5 mg E4 QD per os, week 11",−18%
same,Mean change from baseline in weekly severity of moderate to severe VMS,"5 mg E4 QD per os, week 12",−0.4007
same,"Relative change (% from baseline) in weekly severity of moderate to severe VMS, mean","5 mg E4 QD per os, week 12",−17%
same,"Difference with placebo, LS adjusted mean, absolute change in weekly severity of moderate to severe VMS","5 mg E4 vs placebo, week 4",0.08925
same,"Difference with placebo, LS adjusted mean, relative change in weekly severity of moderate to severe VMS","5 mg E4 vs placebo, week 4",0.04543
same,"Difference with placebo, LS adjusted mean, absolute change in weekly severity of moderate to severe VMS","5 mg E4 vs placebo, week 12",0.2557
